In article PMC9313321 (Biomedicines, 2022):

How the values were obtained:
[1] = target: T1, electric eel acetylcholinesterase (eeAChE) (Electrophorus electricus, UniProt O42275); assay: biochemical
T1 construct: purchased Sigma-Aldrich
Description: (§1) The inhibition of electric eel acetylcholinesterase (eeAChE) and equine butyrylcholinesterase (eqBChE), both obtained from Sigma-Aldrich (Burlington, MA, USA), was studied using an adaptation of Elmman’s method, as previously described. For this, tris(hydroxymethyl)aminomethane (TRIS) 50 mM buffer at pH = 8.00, 4-(2-hydroxyethyl)-1-piperazine-ethanesulfonic acid (HEPES) 50 mM buffer at pH = 8.00 and HEPES 50 mM buffer at pH = 8.00 with NaCl 50 mM and MgCl2 20 mM were prepared. […] Working solutions of AChI and BChI were prepared daily by the proper dilution of the stock solutions in distilled water. A working solution of 5,5′-dithiobis-(2-nitrobenzoic acid) (DTNB) 3 mM in HEPES (NaCl, MgCl2) was prepared daily and kept under darkness. Stock solutions of eeAChE and eqBChE were prepared by dissolving the lyophilized powder enzyme in 10 mL of TRIS buffer under ice and they were divided into aliquots of 50 and 5 UN mL^−1 that were stored at −20 °C until needed. Stock solutions of 1 mg of each ligand in 1 mL MeOH (with 20% of DMSO) were prepared and working solutions for each ligand were obtained by the corresponding dilution from the stock solutions. A control measurement with 5 replicates (without ligand) and a calibration curve of 5 points with 3 replicates per point was derived. […] A blank solution containing HEPES (399 μL) and MeOH (50 μL) was prepared at the same time. […] The experiments were performed twice.

[2] = target: equine butyrylcholinesterase (eqBChE) (Equus caballus, UniProt P81908); assay: biochemical; settings: for SI (selectivity index): IC50 (AChE)/IC50 (BChE), eeAChE and eqBChE; for IC50: eqBChE, 15 min pre-incubation, pH 8.00, read-out: BChE Inhib IC50
Chain of equine butyrylcholinesterase (eqBChE) (P81908 whole entry): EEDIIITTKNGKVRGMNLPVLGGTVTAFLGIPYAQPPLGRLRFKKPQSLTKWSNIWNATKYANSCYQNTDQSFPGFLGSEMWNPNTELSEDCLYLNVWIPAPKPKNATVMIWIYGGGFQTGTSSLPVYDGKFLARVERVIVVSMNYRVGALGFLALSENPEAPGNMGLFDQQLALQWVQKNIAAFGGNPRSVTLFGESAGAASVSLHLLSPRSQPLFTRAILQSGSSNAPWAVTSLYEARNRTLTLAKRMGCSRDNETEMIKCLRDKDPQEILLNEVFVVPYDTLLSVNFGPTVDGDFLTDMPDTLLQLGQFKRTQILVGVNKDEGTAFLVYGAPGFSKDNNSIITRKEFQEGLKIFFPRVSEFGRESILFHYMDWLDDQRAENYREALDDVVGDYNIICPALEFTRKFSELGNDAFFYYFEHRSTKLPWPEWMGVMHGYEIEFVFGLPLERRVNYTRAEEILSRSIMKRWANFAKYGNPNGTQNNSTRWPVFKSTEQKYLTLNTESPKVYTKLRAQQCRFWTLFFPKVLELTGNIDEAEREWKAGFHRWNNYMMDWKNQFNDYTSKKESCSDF
Description: as §1

[3] = target: T2, Cu(II)-induced Aβ42 aggregation (Homo sapiens, UniProt P05067); assay: Inhibition of Cu(II)-induced Aβ42 aggregation (thioflavin T fluorescence); format: biochemical; settings: for inhibition at 20 µM: read-out: Aβ42 Cu-Ind. Aggreg. Inhib, copper (40 μM), 20 μM inhibitor, thioflavin-T fluorescence, 37 °C 24 h
T2 construct: Beta-amyloid protein, fragment 1-42; purchased GeneCust
T2 sequence (P05067 672-713 limits assumed): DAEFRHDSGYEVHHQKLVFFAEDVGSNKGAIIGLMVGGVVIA
Description: The inhibition of Aβ42 aggregation and Cu(II)-induced Aβ42 aggregation, carried out by the RIV–BIM hybrids, was studied using a reported method based on the fluorescence emission of thioflavin T [52, 53].
Solutions of phosphate buffer 0.215 M at pH = 8.00, Na2CO3 300 μM in distilled water, NaOH 250 mM in distilled water, glycine-NaOH 50 mM buffer at pH = 8.50 and CuCl2 240 μM in phosphate buffer were prepared. Stock solutions of […] of the RIV–BIM compounds were prepared in MeOH (with 20% DMSO). Working solutions of 240 μM of the RIV–BIM hybrids were prepared by the proper dilution of their stock solutions with phosphate buffer. A working solution of glycine-NaOH 50 mM buffer at pH = 8.50 containing 5 μM of thioflavin T (ThT) was prepared daily. Aβ42 (GeneCust) was pre-treated with 1,1,1,3,3,3-hexafluoro-2-propanol (HFIP) to obtain a solution of 0.149 mM by brief sonication and vortexing, which was kept covered overnight at room temperature. From the Aβ42 solution, aliquots of 250 μL were placed into Eppendorf tubes under ice and set to evaporate inside a hood at room temperature overnight. When the contents of the Eppendorf tubes were dried, the Aβ42 aliquots were stored at −20 °C until needed. To obtain the Aβ42 working solution, the Aβ42 aliquots were dissolved with a freshly prepared mixture of 69.5 μL of CH3CN/Na2CO3 (300 μM)/NaOH (250 mM) (48.3/48.3/3.4, v/v/v) by brief sonication and vortexing to obtain an Aβ42 solution of 531.24 μM. To this solution, 392.5 μL of phosphate buffer was added, achieving an Aβ42 working solution of 80 μM. To prepare the incubations, three replicates of Aβ42 alone (30 μL Aβ42 80 μM + 30 μL phosphate buffer), Aβ42 with RIV–BIM (30 μL Aβ42 80 μM + 10 μL RIV–BIM 240 μM + 20 μL phosphate buffer), Aβ42 with copper (30 μL Aβ42 80 μM + 10 μL CuCl2 240 μM + 20 μL phosphate buffer) and Aβ42 with copper and RIV–BIM (30 μL Aβ42 80 μM + 10 μL CuCl2 240 μM + 10 μL RIV–BIM 240 μM + 10 μL phosphate buffer) were placed in Eppendorfs. To obtain the blank solutions, a similar number of Eppendorfs, replacing Aβ42 with phosphate buffer, were prepared. Incubations were performed in a water bath at 37 °C with agitation for 24 h. Afterwards, 180 μL of glycine-NaOH 50 mM buffer at pH = 8.50 containing 5 μM of ThT was added to each Eppendorf and then they were vortexed. Finally, 200 μL of solution from each Eppendorf was placed in the wells of a microplate and fluorescence measurements were monitored using a Spectramax Gemini EM (Molecular Devices) fluorimeter with an excitation wavelength of 446 nm and an emission wavelength of 485 nm. Blank signals were subtracted from the corresponding samples. The fluorescence intensity of the Aβ42 + RIV–BIM solution was compared to that of the Aβ42 solution to obtain the inhibition of Aβ42 self-aggregation for each compound. The fluorescence intensity of the Aβ42 + Cu(II) + RIV–BIM solution was compared to that of the Aβ42 + Cu(II) solution to obtain the inhibition of the Cu(II)-induced Aβ42 aggregation for each hybrid.
The anti-amyloidogenic capacity of the compounds was assessed in vitro using the thioflavin T (ThT) method. To record fluorescence emission, excitation (446 nm) and emission (485 nm) wavelengths were used. When ThT binds to amyloid fibrils, an increase in absorbance and emission of this dye occurs with concomitant red shifts of the respective spectra. The percent of inhibition of Aβ42 aggregation is shown in Table 1, and the assays were performed in the presence of 20 μM of inhibitor. These concentration conditions were used to overcome solubility problems of some compounds in the aqueous phosphate buffer working medium. […]. […]

T1 sequence (O42275 24-633): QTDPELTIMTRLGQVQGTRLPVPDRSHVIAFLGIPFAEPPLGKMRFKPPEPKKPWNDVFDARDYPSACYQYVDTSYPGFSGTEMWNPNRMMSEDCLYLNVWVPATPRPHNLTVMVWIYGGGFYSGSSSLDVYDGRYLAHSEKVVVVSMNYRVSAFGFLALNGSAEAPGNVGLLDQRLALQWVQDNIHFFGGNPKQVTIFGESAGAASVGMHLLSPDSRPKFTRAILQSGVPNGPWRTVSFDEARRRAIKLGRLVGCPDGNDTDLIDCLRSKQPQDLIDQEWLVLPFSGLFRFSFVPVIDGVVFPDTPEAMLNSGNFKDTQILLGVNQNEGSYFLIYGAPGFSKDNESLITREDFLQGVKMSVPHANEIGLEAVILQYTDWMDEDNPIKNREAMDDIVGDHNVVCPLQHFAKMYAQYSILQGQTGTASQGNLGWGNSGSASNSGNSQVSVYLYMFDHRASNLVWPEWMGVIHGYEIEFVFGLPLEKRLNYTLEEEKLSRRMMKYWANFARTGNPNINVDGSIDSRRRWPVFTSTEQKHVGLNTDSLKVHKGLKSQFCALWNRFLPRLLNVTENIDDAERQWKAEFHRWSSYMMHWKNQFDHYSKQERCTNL

SMILES	IC50 [1] [µM]	SI (selectivity index) [2]	IC50 [2] [µM]	inhibition at 20 µM [3] [%]	Aβ42 Cu-Ind. Aggreg. Inhib ([3]; copper (40 μM), 20 μM inhibitor, thioflavin-T fluorescence, 37 °C 24 h) [%]
CCN(C)C(=O)Oc1cccc(NC(=O)c2ccc3nc(-c4ccccc4O)[nH]c3c2)c1 [Compound 4a, 3-(2-(2-Hydroxyphenyl)-1H-benzo[d]imidazole-6-carboxamido)phenyl Ethylmethylcarbamate]	17.6 ± 0.6	3.03	5.85 ± 0.03	41.2	
CCN(C)C(=O)Oc1cccc(CNC(=O)c2ccc3nc(-c4ccccc4O)[nH]c3c2)c1 [Compound 4b, 3-((2-(2-Hydroxyphenyl)-1H-benzo[d]imidazole-6-carboxamido)methyl) Phenyl Ethylmethylcarbamate]	14 ± 2	2.17	6.5 ± 0.4	48.8	
CCN(C)C(=O)Oc1cccc(CCNC(=O)c2ccc3nc(-c4ccccc4O)[nH]c3c2)c1 [Compound 4c, 3-(2-(2-(2-Hydroxyphenyl)-1H-benzo[d]imidazole-6-carboxamido)ethyl) Phenylethylmethylcarbamate]	17.7 ± 0.8	3.69	4.8 ± 0.1	22	
CCN(C)C(=O)Oc1ccc(CCCNC(=O)c2ccc3nc(-c4ccccc4O)[nH]c3c2)cc1 [Compound 4d, 4-(3-(2-(2-Hydroxyphenyl)-1H-benzo[d]imidazole-6-carboxamido)propyl) Phenyl Ethylmethylcarbamate]	24 ± 1	1.25	19.2 ± 0.7	21.3	
CCN(C)C(=O)Oc1cccc(NC(=O)c2cccc3[nH]c(-c4ccccc4O)nc23)c1 [Compound 5a, 3-(2-(2-Hydroxyphenyl)-1H-benzo[d]imidazole-4-carboxamido)phenyl Ethylmethylcarbamate]	17.6 ± 0.4	19.6	0.9 ± 0.1	45.4	
CCN(C)C(=O)Oc1cccc(CNC(=O)c2cccc3[nH]c(-c4ccccc4O)nc23)c1 [Compound 5b, 3-((2-(2-Hydroxyphenyl)-1H-benzo[d]imidazole-4-carboxamido)methyl) Phenyl Ethylmethylcarbamate]	31.7 ± 0.1	105.7	0.3 ± 0.01	60.8	
CCN(C)C(=O)Oc1ccc(CCCNC(=O)c2cccc3[nH]c(-c4ccccc4O)nc23)cc1 [Compound 5d, 4-(3-(2-(2-Hydroxyphenyl)-1H-benzo[d]imidazole-4-carboxamido) Propyl) Phenyl Ethyl(methyl)carbamate]	21.4 ± 0.4	12.6	1.7 ± 0.2	41.2 to 60.8	40.3
